Source: patent US6375944B1, “Methods and compositions for enhancing the immunostimulatory effect of interleukin-12” (The Wistar Institute of Anatomy and Biology, priority 1998, dated 2002)
Where “and” joins values, the source holds several entries; their conditions need not be identical. Identical values can stand only once.

Experiments:
SCK cells [1] = assay: SCK.GM cell vaccination followed by SCK tumor cell challenge; format: in vivo, A/J mice; details: for Effect on SCK.GM-induced protection: mice not treated with rmIL-12, data not shown
Excerpt: A. Female A/J mice were vaccinated with 10^6 irradiated SCK.GM cells suspended in PBS at 10^7 trypan blue-excluding cells/ml. Cells were irradiated with 6000 rads from a ^137Cs source, and mice were vaccinated with 10^6 cells s.c. (day 0). […] Vaccinated and naive A/J mice were challenged fourteen days after vaccination with 2.5×10^4 trypan blue-excluding SCK cells in the opposite flank to assay for the presence of tumor immunity. Tumorigenesis was scored daily.

SCK cells [2] = assay: Tumor cell rechallenge in mice with established SCK immunity; format: in vivo, A/J mice; details: for Prevention of rmIL-12 impairment of immune rejection: given with rmIL-12 therapy, established SCK immunity; for mice that developed tumors: rmIL-12 treated mice with established SCK immunity, data not shown
Excerpt: Thus, L-NAME prevents rmIL-12 suppression of established antitumor immune responses.

SCK cells [3] = assay: Irradiated wild-type SCK cell vaccination followed by SCK tumor cell challenge; format: in vivo, A/J mice; details: for mice that developed tumors: given with irradiated SCK cells and rmIL-12, challenged on day 14
Excerpt: Female A/J mice (8 mice per group) were vaccinated with 10^6 irradiated SCK cells and received either PBS, rmIL-12, rmIL-12+L-NAME or rmIL-12 and D-NAME on days 0-4 and 7-11. Mice were challenged fourteen days after vaccination with 2.5×10^4 SCK cells in the opposite flank. Tumorigenesis was scored daily, as described above.

SCK tumors = assay: Antitumor activity of rmIL-12 against SCK tumors (tumorigenesis scored daily); format: in vivo, A/J mice
Description: Female A/J mice were injected with 2.5×10^4 SCK cells and either PBS, rmIL-12, rmIL-12+L-NAME or rmIL-12 and D-NAME on days 0-4 and 7-11. Tumorigenesis was scored daily, as described above.

splenocytes = assay: Mitogen and alloantigen stimulation of splenocytes (3H-thymidine incorporation), whole or adherent/nonadherent cocultures; format: cell-based, mice; set-up: Effect on mitogenesis / inhibition of mitogenic responses: dose or concentration left out as unconfirmed
Description: The mitogen and alloantigen stimulation of splenocytes assay was performed as follows: In vitro mitogenic stimulation of splenocytes with […] Con A or 100 U/ml rmIL-12 was performed as described [Kurzawa, cited above]. Proliferative responses to allogeneic antigens (mixed lymphocyte reaction, MLR) was measured when splenocytes from the mice were stimulated with 10^5 mitomycin treated A/J splenocytes. Splenocyte fractionation was performed by allowing 10^5 splenocytes to adhere for 90 minutes in 96 well plates, after which the nonadherent cells were removed and cocultured with adherent cells from different wells for assay. When added, antibodies (XMG6 for IFNγ, XT22 for TNFα, AE5 for IL-10 and C17.8 for IL-12 ) were used at […] final concentration. After 72 hours exposure to mitogen, cultures were pulsed with 1 μCi^3H-thymidine for 16 hours, cells were harvested and ^3H incorporation was measured by scintillation counting. Supernatants from cultures assayed for IFNγ by radioimmunoassay (RIA) (using antibodies AN18 and XMG6 [Wysocka, M. et al. 1995 Eur. J. Immunol. 25:672] were harvested 24 or 72 hours after stimulation.
A. Splenocytes from rmIL-12- and PBS-treated C57BL/6 mice were fractioned by adherence to 96 well plastic plates for 90 minutes. The cells were reconstituted in various combinations of adherent and nonadherent cells by overlaying nonadherent cells on the adherent cells. These cocultures were then stimulated with either 2.5 μg/ml Con A, 100 U/ml IL-12, or 10^5 mitomycin C treated A/J (H-2A) splenocytes, as described in the mitogen/alloantigen assay of Example 1.
B. Cocultures were established from splenic adherent and nonadherent cells of PBS-treated mice or from the adherent cells of rmIL-12-treated mice and nonadherent cells of PBS-treated mice. Antibodies XMG6 (to IFNγ), XT22 (to TNFα), AE5 (to IL-10) and C17.8 (to IL-12 ) were added to a final concentration of […] in cocultures containing adherent cells from spleen of rmIL-12-treated mice, also according to the assay described in Example 1.
(§1) Cocultures were established from splenic adherent and nonadherent cells of PBS-treated mice or from the adherent cells of rmIL-12-treated mice and nonadherent cells of PBS-treated mice. Antibodies XMG6 (to IFNγ), XT22 (to TNFα), AE5 (to IL-10) and C17.8 (to IL-12) were added to a final concentration of […] in cocultures containing adherent cells from spleen of rmIL-12-treated mice. An inhibitor of inducible nitric oxide synthase (iNOS), L-NMMA (Sigma), was added to cocultures of adherent cells from rmIL-12 treated mice and nonadherent cells from control mice at a final concentration of […]. Alternatively, D-NMMA (Sigma), a noninhibitory isoform of L-NMMA, was added to other cocultures as a control.

NO production = NO production measured as nitrite in stimulated cell supernatants by the Greiss assay; format: cell-based; set-up: dose or concentration left out as unconfirmed; details: cocultures of adherent cells from rmIL-12 treated mice and nonadherent control cells; compared to D-NMMA; two independent measurements
Description: as §1
NO production was measured as nitrite concentration in stimulated cell supernatants by the Greiss assay [Green, L. C. et al, Anal. Biochem 126:131 (1982)]. Supernatant (100 μl) was added to 96 well plates; 100 μl of a 1:1 mixture of 1% sulfanilamide dihydrochloride in 2.5% H3PO4 and 0.1% naphthylethylenediamine dihydrochloride in 2.5% H3PO4 was then added to samples. Plates were incubated at room temperature for 10 minutes and A540 was determined using a microplate reader with reference to sodium nitrite standard curves. S-nitroso-N-acetyl-penillamine (SNAP, Sigma), an NO donor, was used as a acellular source of NO and was added to splenocytes from HKB-vaccinated C57BL/6 mice.

[4] = SCK-vaccinated mice, at 28 days, rmIL-12 alone, or L-NAME/D-NAME given with rmIL-12

Row | Compound | Effect on SCK.GM-induced protection (SCK cells [1]) | Prevention of rmIL-12 impairment of immune rejection (SCK cells [2]) | mice that developed tumors (SCK cells [2]) [%] | level of protection (SCK cells [3]; [4]) [%] | mice that developed tumors (SCK cells [3]) [%] | other results
1 | COC(=O)[C@H](N)CCCNC(=N)N[N+](=O)[O-] [D-NAME, N^ω-nitro-D-arginine methyl ester] | had no effect | not | 75 | 50 | 75 | mice that developed tumors (SCK cells [1]; SCK.GM vaccinated, given with rmIL-12, challenge 14 days after vaccination): 75%
2 | COC(=O)[C@@H](N)CCCNC(=N)N[N+](=O)[O-] [L-NAME, N^ω-nitro-L-arginine methyl ester] | had no effect | prevented this impairment of immune rejection | 25 | 50 | 38 | Prevention of rmIL-12 impairment of SCK.GM vaccine protection (SCK cells [1]; given with rmIL-12 days 0-4 and 7-11, challenge 14 days after vaccination): prevented this impairment; level of protection (SCK cells [3]; SCK-vaccinated, given with rmIL-12, at 14 days): 62%; median days to tumor appearance (SCK tumors; 2.5×10^4 SCK cells, treatment days 0-4 and 7-11, L-NAME given with rmIL-12, 9 days without rmIL-12): 17 days; delay of tumor appearance vs. mice given rmIL-12 alone or with D-NAME (SCK tumors; L-NAME given with rmIL-12): 3 days; Effect on SCK tumorigenesis (SCK tumors; given without rmIL-12, data not shown): had no effect on SCK tumorigenesis; delay of tumor appearance vs. untreated mice (SCK tumors; treatment started on day of SCK cell injection, L-NAME given with rmIL-12): 8 days
3 | CNC(=N)NCCC[C@H](N)C(=O)O [L-NMMA, N^G-monomethyl-L-arginine] | – | – | – | – | – | Effect on mitogenesis (splenocytes; cocultures of adherent cells from rmIL-12 treated mice and nonadherent control cells, compared to D-NMMA): restored mitogenesis; reduction of NO levels in the culture supernatant (NO production): 58% and 94%
4 | S-nitroso-N-acetyl-penillamine [SNAP, reference compound] | – | – | – | – | – | inhibition of mitogenic responses (splenocytes; splenocytes from HKB-vaccinated C57BL/6 mice, cultures with NO levels as low as): 83-98%
